Test results as given in the supplement of paper PMC10307832.

What was measured:
Experiment in all cases: relative viability (nuclei count vs DMSO), 5 days (fraction); higher = more cells survive
[1] = compound: CCN1C(=O)C2=CC(=C(N=C2N(C1=O)C3CC3)N)C(=O)N + Cc1nc(Nc2ncc(C(=O)Nc3c(C)cccc3Cl)s2)cc(N2CCN(CCO)CC2)n1 [Dasatinib] (partner 0.075 µM)
Method in brief: (§1)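 Dosing by pin tool came one day after lung cancer cell lines were seeded in 1536-well plates, using either one drug or a fixed anchor-drug dose plus five library-drug doses (not always all listed) in √10 steps. After 5 days, nuclei were counted on 4× images. Relative viability is treated-well nuclei count divided by vehicle-well nuclei count, and values are medians of duplicate plates.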

[2] = compound: CCN1C(=O)C2=CC(=C(N=C2N(C1=O)C3CC3)N)C(=O)N + O=C(c1cc(Cc2n[nH]c(=O)c3ccccc23)ccc1F)N1CCN(C(=O)C2CC2)CC1 [Olaparib] (partner 8 µM)
Method in brief: as §1

[3] = compound: CCN1C(=O)C2=CC(=C(N=C2N(C1=O)C3CC3)N)C(=O)N + O=C(CCCCCCC(=O)Nc1ccccc1)NO [Vorinostat] (partner 1 µM)
Method in brief: as §1

[4] = compound: CCN1C(=O)C2=CC(=C(N=C2N(C1=O)C3CC3)N)C(=O)N + Cc1cc(Nc2cc(N3CCN(C)CC3)nc(Sc3ccc(NC(=O)C4CC4)cc3)n2)n[nH]1 [Tozasertib] (partner 0.1 µM)
Method in brief: as §1

[5] = compound: CCN1C(=O)C2=CC(=C(N=C2N(C1=O)C3CC3)N)C(=O)N + C[C@]1(O)C[C@@H](c2nc(-c3ccc4ccc(-c5ccccc5)nc4c3)c3c(N)nccn32)C1 [Linsitinib] (partner 1 µM)
Method in brief: as §1

Cell Line	relative viability ([1]; first compound 0.253 µM)	relative viability ([1]; first compound 0.8 µM)	relative viability ([1]; first compound 2.53 µM)	relative viability ([1]; first compound 8 µM)	relative viability ([2]; first compound 0.253 µM)	relative viability ([2]; first compound 0.8 µM)	relative viability ([2]; first compound 2.53 µM)	relative viability ([2]; first compound 8 µM)	relative viability ([3]; first compound 0.253 µM)	relative viability ([3]; first compound 0.8 µM)	relative viability ([3]; first compound 2.53 µM)	relative viability ([3]; first compound 8 µM)	relative viability ([4]; first compound 0.253 µM)	relative viability ([4]; first compound 0.8 µM)	relative viability ([4]; first compound 2.53 µM)	relative viability ([4]; first compound 8 µM)	relative viability ([5]; first compound 0.253 µM)	relative viability ([5]; first compound 0.8 µM)	relative viability ([5]; first compound 2.53 µM)	relative viability ([5]; first compound 8 µM)
EKVX	0.496	0.479	0.461	0.469	0.849	0.972	0.792	0.682	0.881	0.589	0.716	0.594	0.359	0.494	0.358	0.384	1.03	1.03	0.934	0.998
EMC-BAC-2	0.35	0.305	0.328	0.318	0.546	–	0.498	0.487	0.992	–	0.782	0.67	0.319	0.249	0.255	0.304	0.848	0.837	0.754	0.888
EPLC-272H	0.425	0.394	0.377	0.431	–	0.752	0.975	1.08	–	0.538	0.411	0.477	0.289	0.227	0.229	0.224	1.18	1.28	1.37	1.36
H3255	0.403	0.444	0.425	0.347	0.567	0.556	0.567	0.633	0.838	0.688	0.819	0.831	0.606	0.682	0.533	1.3	0.879	0.908	0.835	1.03
HARA	0.321	0.234	0.233	0.246	0.897	0.904	0.915	0.841	0.563	0.5	0.57	0.552	0.12	0.129	0.0936	0.111	0.971	0.942	0.829	0.94
HCC-15	0.634	0.598	0.61	0.598	0.749	0.774	0.651	0.725	0.885	0.785	0.869	0.815	0.46	0.389	0.385	0.502	0.867	0.908	0.879	0.913
HCC-44	–	–	–	–	0.982	0.976	0.999	0.975	1.13	1.05	1.06	1.04	0.634	0.965	0.789	0.875	0.693	0.634	0.69	0.641
HCC-78	0.368	–	0.595	0.365	0.807	0.902	0.691	0.959	0.451	0.437	0.437	0.462	0.422	–	0.289	0.453	0.516	0.434	0.482	0.675
